Columns and labels:
Assay type in all cases: cell-based
[1] = tested on: cell strain C3H/10T1/2clone8; experiment: Cell adhesion to coated dishes (O.D. at 260 nm of bound cells); conditions: one hour; for cell adhesion compared with modified epimorphins: coated dishes, C3H/10T1/2clone8 cells; for O.D. at 260 nm (number of the cells bound to the dishes, indicator of cell adhesion): specimen coated on suspension culture dishes, C3H/10T1/2clone8 cells in DH medium with 20 mg/ml bovine serum albumin, control (untreated) 0.0194
Text: The polypeptides A, B and C of the present invention obtained in Example 1, and the modified epimorphins (fragment (123) and fragment (2), each having the same cell adhesion capacity as that of natural type epimorphin) were coated on suspension culture medium dishes. After drying, the dishes were washed once with 8M urea/lysis buffer. Then, the dishes were washed 5 times with PBS^−, and the cell strain C3H/10T1/2clone8 (Dainippon Pharmaceutical Co., Ltd., 08-226) was sprinkled on the dishes using D-MEM/F-12 culture medium (GIBCO BRL, 12400-024; hereinafter called “DH medium”) containing 20 mg/ml bovine serum albumin (SIGMA, A-7030). One hour later, the dishes were washed 3 times with PBS^−, and then the cells were collected using 0.5N NaOH. The O.D. at 260 nm was measured to determine the number of the cells bound to the dishes. The cell count was used as an indicator of the cell adhesion of each specimen. The O.D.'s found were 1.5237 for polypeptide A, 1.4251 for polypeptide B, 1.4697 for polypeptide C, 1.4959 for fragment (123), 1.4478 for fragment (2), and 0.0194 for control (untreated).

[2] = tested on: morphogenetic action of epimorphin on a pulmonary primordium; experiment: Inhibitory action on morphogenesis of bronchus, organ culture of pulmonary primordium; conditions: 0.35 mg/ml in DH medium; ICR mouse fetal pulmonary primordium (12 days of gestation); 3 days of culture; 5% CO2 at 37° C.
Protocol: (§1) A pulmonary primordium was removed from the fetus of the ICR pregnant mouse (Nippon Charles River, 12 days of gestation) under a stereoscopic microscope. The pulmonary primordium taken was placed on Nuclepore membrane filter (SN 110419) floated on a culture medium (DH medium, or 0.35 mg/ml polypeptide A-containing DH medium). Organ culture was performed in 5% CO2 at 37° C. to investigate the effect of polypeptide A on the morphogenesis of the bronchus. […] This manner of inhibition of morphogenesis was exactly the same as in treatment with MC-1, i.e., antibodies inhibiting the function of epimorphin.

[3] = tested on: hair follicle morphogenetic action of epimorphin on a maxillary skin; experiment: Inhibitory action on morphogenesis of maxillary skin (hair follicle), organ culture; conditions: 0.35 mg/ml in DH medium; ICR mouse fetal maxillary skin (13 days of gestation); 3 days of culture; 5% CO2 at 37° C.
Protocol: as §1, with “maxillary skin” for “pulmonary primordium”, “13” for “12”, “hair follicle.” for “bronchus.”

Row | Substance | cell adhesion compared with modified epimorphins [1] | O.D. at 260 nm (number of the cells bound to the dishes, indicator of cell adhesion) [1] | morphogenesis of the bronchus [2] | morphogenesis of hair follicles [3]
1 | polypeptide A: 19 amino acids, 1st (N-terminal) to 19th of the functional domain (SEQ ID NO: 8) of natural type mouse epimorphin, chemically synthesized (NGNRTSVDLRIRRTQHSVL; listed as Mus musculus) | cell adhesion comparable to that of the modified epimorphins | 1.5237 | markedly inhibited | markedly inhibited
2 | polypeptide B: 39 amino acids, 1st (N-terminal) to 39th of the functional domain (SEQ ID NO: 8) of natural type mouse epimorphin (NGNRTSVDLRIRRTQHSVLSRKFVDVMAEYNEAQILFRE; listed as Mus musculus) | cell adhesion comparable to that of the modified epimorphins | 1.4251 | – | –
3 | polypeptide C: 41 amino acids, 1st (N-terminal) to 41st of the functional domain (SEQ ID NO: 8) of natural type mouse epimorphin (NGNRTSVDLRIRRTQHSVLSRKFVDVMAEYNEAQILFRERS; listed as Mus musculus) | cell adhesion comparable to that of the modified epimorphins | 1.4697 | – | –
